Reference: publication PMC10382584, “Macrocyclization of linear molecules by deep learning to facilitate macrocyclic drug candidates discovery” (Nature Communications, 2023)

Legend:
Experiment in all cases: biochemical
Set-up in all cases: DiscoveRx KINOMEscan competition binding, percent of DMSO control signal at 100 nM
Details in all cases: read-out: Fig. 4a / Percent Control / Compound 1; percent of DMSO control, competition binding
[1] = molecular target: T1, CDC2L2 (Homo sapiens, UniProt Q9UQ88)
T1 construct: gene CDK11A
T1 sequence (Q9UQ88 whole entry): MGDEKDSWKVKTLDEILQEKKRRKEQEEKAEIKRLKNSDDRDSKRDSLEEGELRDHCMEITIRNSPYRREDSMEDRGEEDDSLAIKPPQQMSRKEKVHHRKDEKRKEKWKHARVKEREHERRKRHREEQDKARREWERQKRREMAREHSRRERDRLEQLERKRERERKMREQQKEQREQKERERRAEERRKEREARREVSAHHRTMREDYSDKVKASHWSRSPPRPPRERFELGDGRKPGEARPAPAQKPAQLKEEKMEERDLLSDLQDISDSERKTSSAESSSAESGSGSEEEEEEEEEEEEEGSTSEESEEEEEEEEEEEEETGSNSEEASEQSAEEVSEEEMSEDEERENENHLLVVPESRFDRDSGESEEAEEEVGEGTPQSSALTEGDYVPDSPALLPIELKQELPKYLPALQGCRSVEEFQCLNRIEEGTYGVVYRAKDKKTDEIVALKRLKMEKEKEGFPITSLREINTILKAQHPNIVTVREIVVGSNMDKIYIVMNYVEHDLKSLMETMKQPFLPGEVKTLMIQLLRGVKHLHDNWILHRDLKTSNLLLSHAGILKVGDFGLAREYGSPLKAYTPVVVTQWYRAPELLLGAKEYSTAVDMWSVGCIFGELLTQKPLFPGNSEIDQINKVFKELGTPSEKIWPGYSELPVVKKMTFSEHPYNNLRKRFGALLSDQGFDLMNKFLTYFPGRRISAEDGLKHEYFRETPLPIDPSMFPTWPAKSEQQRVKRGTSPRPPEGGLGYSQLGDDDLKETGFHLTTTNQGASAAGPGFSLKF

[2] = molecular target: T2, GCN2(Kin.Dom.2,S808G) (Homo sapiens, UniProt Q9P2K8, S808G)
T2 construct: gene EIF2AK4; Kin.Dom.2
T2 sequence (Q9P2K8 whole entry S808G): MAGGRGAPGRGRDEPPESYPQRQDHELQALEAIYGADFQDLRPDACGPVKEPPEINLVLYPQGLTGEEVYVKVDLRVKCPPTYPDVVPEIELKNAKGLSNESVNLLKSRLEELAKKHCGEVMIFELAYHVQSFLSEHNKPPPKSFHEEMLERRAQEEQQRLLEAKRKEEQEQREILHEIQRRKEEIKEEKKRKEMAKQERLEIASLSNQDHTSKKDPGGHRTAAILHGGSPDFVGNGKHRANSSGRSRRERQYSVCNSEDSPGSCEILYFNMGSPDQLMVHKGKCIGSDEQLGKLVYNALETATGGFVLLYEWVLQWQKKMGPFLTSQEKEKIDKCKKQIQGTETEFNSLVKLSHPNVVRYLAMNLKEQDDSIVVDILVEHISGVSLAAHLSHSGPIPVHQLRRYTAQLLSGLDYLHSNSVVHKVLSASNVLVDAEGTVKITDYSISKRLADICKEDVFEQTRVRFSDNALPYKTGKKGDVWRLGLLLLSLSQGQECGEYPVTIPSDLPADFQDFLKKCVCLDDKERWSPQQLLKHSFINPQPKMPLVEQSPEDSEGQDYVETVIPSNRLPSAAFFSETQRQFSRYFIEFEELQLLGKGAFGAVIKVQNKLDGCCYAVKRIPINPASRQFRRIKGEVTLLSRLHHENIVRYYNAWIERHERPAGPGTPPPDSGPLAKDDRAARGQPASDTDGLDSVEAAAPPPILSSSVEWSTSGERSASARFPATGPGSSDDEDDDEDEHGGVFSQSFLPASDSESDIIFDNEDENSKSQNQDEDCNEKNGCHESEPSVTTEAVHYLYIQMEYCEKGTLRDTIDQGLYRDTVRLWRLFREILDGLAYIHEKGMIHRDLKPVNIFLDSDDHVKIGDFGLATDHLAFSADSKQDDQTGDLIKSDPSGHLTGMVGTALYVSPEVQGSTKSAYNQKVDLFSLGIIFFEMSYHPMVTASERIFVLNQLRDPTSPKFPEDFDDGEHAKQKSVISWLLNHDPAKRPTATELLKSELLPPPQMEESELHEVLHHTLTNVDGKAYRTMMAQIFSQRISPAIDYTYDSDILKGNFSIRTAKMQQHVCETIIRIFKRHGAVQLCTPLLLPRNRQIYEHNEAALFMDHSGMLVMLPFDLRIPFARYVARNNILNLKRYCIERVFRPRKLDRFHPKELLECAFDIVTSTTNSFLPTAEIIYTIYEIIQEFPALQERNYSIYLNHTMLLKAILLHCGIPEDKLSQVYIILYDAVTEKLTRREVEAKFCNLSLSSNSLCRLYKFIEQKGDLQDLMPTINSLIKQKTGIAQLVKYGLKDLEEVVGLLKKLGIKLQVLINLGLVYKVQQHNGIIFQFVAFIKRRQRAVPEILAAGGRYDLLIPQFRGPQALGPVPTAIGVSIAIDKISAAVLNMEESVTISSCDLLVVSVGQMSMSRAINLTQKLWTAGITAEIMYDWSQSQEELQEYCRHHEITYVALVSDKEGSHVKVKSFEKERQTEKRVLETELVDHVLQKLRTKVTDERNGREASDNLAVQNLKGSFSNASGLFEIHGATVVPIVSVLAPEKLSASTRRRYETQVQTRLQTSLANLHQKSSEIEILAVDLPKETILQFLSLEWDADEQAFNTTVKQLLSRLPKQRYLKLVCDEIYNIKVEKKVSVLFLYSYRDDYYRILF

[3] = molecular target: T3, JNK2 (Homo sapiens, UniProt P45984)
T3 construct: gene MAPK9
T3 sequence (P45984 whole entry): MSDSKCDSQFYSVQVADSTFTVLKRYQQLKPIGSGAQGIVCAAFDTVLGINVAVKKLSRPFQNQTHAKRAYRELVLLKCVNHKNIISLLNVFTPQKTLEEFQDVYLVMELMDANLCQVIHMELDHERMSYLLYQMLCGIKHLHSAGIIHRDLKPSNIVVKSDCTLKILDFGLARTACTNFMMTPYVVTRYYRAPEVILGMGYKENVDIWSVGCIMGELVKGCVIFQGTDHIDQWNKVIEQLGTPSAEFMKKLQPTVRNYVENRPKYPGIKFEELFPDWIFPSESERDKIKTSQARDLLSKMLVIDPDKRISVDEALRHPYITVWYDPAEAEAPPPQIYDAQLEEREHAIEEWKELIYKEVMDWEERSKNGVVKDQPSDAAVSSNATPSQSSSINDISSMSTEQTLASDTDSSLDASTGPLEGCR

[4] = molecular target: ROS1 (Homo sapiens, UniProt P08922)
[5] = molecular target: DYRK1B (Homo sapiens, UniProt Q9Y463)
Chain of DYRK1B (Q9Y463 whole entry): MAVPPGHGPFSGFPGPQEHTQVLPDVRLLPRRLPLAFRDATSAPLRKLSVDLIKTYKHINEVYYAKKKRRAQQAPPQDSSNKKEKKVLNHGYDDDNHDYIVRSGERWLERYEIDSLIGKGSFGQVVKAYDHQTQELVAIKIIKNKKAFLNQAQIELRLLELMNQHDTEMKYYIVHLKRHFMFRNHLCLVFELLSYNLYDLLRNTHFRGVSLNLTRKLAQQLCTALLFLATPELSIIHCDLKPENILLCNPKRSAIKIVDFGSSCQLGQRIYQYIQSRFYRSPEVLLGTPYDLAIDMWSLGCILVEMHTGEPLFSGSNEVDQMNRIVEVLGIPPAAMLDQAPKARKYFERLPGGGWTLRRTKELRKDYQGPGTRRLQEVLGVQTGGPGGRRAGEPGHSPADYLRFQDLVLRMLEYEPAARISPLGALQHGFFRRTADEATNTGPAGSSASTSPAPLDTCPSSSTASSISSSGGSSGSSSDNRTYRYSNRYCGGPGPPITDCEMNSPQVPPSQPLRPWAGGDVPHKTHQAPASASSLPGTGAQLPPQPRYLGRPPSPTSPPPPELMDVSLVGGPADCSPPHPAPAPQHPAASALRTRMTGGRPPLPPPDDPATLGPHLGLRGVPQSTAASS
Experimental: (§1) The kinase selectivity profile was performed by using the DiscoveRx KINOMEscan platform. […] Test compounds were prepared as 40× stocks in 100% DMSO and directly diluted into the assay. The results were defined as a percentage of signal between the negative (DMSO, 100% control) and the positive (control compound, 0% control) control, which was calculated as follows: percent control = [(test compound signal − positive control signal)/(negative control signal − positive control signal)] × 100.

[6] = molecular target: LTK (Homo sapiens, UniProt P29376)
Chain of LTK (P29376 whole entry): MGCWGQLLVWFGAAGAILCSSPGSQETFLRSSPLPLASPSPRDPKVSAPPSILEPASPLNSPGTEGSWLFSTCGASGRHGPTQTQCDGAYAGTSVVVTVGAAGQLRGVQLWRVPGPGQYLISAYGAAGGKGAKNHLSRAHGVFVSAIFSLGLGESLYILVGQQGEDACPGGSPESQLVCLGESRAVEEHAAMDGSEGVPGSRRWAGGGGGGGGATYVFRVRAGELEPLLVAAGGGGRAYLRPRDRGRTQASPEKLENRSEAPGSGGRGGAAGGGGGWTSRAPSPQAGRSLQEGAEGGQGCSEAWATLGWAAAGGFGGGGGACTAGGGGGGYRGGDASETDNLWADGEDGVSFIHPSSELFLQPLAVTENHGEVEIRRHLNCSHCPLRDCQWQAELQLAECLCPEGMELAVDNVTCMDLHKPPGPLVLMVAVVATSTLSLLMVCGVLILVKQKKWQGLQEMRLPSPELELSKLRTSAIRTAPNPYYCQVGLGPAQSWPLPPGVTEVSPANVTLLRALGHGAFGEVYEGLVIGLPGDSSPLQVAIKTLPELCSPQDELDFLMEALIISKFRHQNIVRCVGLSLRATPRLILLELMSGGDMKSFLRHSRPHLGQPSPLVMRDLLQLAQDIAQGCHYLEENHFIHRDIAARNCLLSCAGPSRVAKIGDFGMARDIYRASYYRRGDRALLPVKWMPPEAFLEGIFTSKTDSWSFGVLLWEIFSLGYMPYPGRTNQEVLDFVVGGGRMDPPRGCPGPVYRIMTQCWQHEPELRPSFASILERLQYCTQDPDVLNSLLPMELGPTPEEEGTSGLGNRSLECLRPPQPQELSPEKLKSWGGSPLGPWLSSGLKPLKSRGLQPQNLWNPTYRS
Experimental: as §1

SMILES: Cc1cnc2nc1Nc1cccc(c1)COCc1cc(ccc1OCCN1CCCC1)N2 [Compound 1]
- remaining binding at 0.1 µM [1]: 94%
- remaining binding at 0.1 µM [2]: 38%
- remaining binding at 0.1 µM [3]: 50%
- remaining binding at 0.1 µM [4]: 76%
- remaining binding at 0.1 µM [5]: 100%
- remaining binding at 0.1 µM [6]: 100%
